What was measured:
[1] = target: BTK (Homo sapiens (Human), UniProt Q06187); assay: Intracellular BTK Auto-Phosphorylation Activity Inhibition Test in Ramos cells; assay type: cell-based; details: test compound 0.03 μM, anti-IgM stimulation, pY223, read-out: Inhibitory Activity on BTK-phosphorization
Description: Ramos cells (2G6.4C10, ATCC No. CRL-1923) were cultured in a T75 flask containing RPMI-1640 medium (GIBCO, # A10491-01) supplemented with 10% FBS (AusGene) and 1% penicillin-streptomycin (Nacalai Tesque, Inc.) (hereinafter referred to as growth medium) in a 5% CO2 incubator.
The cultured Ramos cells were diluted to a cell density of 7.5×10^6 cells/mL with a serum-free RPMI-1640 (hereinafter referred to as medium) and kept at 37° C. for 45 minutes. The cell suspension was dispensed in 1 mL aliquots into 2.0 mL tubes. A 0.03 mM solution of the test substance in DMSO was diluted with the medium to make a 0.09 μM test compound solution, 500 μL of which was then added to the tubes and the incubation was conducted at 37° C. for 1 hour in the presence of the test compound at a final concentration of 0.03 μM. Thereafter, the anti-IgM antibody (Invitrogen, H15100) which had been diluted with the medium was added at a final concentration of 10 μg/mL, and the incubation was conducted at 37° C. for 10 minutes.
To the pellets obtained by recovering the cells via centrifugation, 100 μL of a lysis buffer [RIPA Buffer(×1)(Cell Signaling Technology, Inc.) supplemented with 1% Phosphatase inhibitor Cacktail 3 (Sigma Corporation, No. P0044), 1% Phosphatase inhibitor Cacktail (Nacalai Tesque, Inc., No. 07575) and 1 mM phenylmethylsulfonyl fluoride (PMSF)] was added and stirred gently and then allowed to stand for 10 minutes. The supernatant was recovered by centrifugation (15,000 rpm, 15 minutes) and the protein level was quantified. The portion was mixed with the SDS-sample buffer, allowed to react for 5 minutes at 95° C. to denature the protein, thereby obtaining a sample solution. Each 5 μL of the sample solutions was applied to each well containing a 5 to 20% gradient acrylamide gel (Nacalai Tesque, Inc., No. 13064-04) and electrophoresis was conducted. Thereafter, iBlot gel transfer system (Life Technologies Corporation) was used to transfer the proteins in the gel onto a PVDF membrane.
The PVDF membrane after transfer was blocked with 2% ECL prime blocking Reagent (GE Healthcare) and thereafter the reaction was conducted overnight at 4° C. using anti-BTK mouse antibody (BD transduction laboratory, No. 611116) or anti-phosphorylated BTK rabbit antibody (pY223, EPITOMICS, No. 2207-1) as a primary antibody. The unreacted primary antibody was washed with a TBST buffer (10 mM Tris-HCl (pH 7.5), 150 mM NaCl, 0.1% Tween 20) and then the reaction was conducted for 1 hour at room temperature in a TBST buffer supplemented with 2% ECL prime blocking Reagent using HRP-labeled anti-mouse IgG horse antibody (Cell Signaling Technology, No. 7076) or anti-rabbit IgG goat antibody (Cell Signaling Technology, No. 7074) as a secondary antibody. After washing the unreacted secondary antibody with the TBST buffer, Chemi-Lumi One Super (Nacalai Tesque, Inc.) was used to conduct a reaction in accordance with the attached protocol, and then the respective bands as chemiluminescences were detected with a CCD camera (GE Healthcare ImageQuant LAS 500). […] Each phosphorylated BTK band was corrected based on the total BTK.
The intracellular BTK autophosphorylation inhibiting activity was indicated with the mark “***” when 90% or more, with the mark “**” when 70% or more and less than 90%, and with the mark “*” when 50% or more and less than 70%.

[2] = target: dephosphorylated BTK (Homo sapiens (Human), UniProt Q06187); assay: BTK Activity Inhibition Test (mobility shift assay); assay type: biochemical; details: 200 μM ATP, read-out: Inhibitory Activity on BTK
Sequence of dephosphorylated BTK (Q06187 whole entry): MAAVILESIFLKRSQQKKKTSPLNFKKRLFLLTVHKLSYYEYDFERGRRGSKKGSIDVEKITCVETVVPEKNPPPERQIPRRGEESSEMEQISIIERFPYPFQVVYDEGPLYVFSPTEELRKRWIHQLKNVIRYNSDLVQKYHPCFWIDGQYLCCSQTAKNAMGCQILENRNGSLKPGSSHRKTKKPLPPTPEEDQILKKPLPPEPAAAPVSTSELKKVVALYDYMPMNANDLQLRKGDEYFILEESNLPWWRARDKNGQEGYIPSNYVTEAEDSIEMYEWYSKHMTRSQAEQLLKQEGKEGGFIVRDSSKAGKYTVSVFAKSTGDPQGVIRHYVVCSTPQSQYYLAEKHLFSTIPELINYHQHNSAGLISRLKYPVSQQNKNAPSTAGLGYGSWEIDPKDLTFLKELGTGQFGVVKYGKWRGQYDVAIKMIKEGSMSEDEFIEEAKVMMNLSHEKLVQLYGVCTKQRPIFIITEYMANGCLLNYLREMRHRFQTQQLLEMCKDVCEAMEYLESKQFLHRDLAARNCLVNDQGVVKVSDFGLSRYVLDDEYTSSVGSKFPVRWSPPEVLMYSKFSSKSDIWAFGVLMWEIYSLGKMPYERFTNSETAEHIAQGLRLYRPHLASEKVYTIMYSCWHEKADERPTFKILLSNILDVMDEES
How it was run: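 Biotinylated human BTK was dephosphorylated with λ phosphatase and assayed by mobility shift, with FITC-SRCtide as substrate in 20 mM HEPES pH 7.5, 0.01% Triton X-100 and 2 mM DTT. The substrate mix held 4 μM substrate, 20 mM MgCl2 and 200 μM ATP, and the enzyme solution held 0.46 nM BTK (stock levels, not final). After 2 h at room temperature, % inhibition was derived from P/(P+S) and IC50 by log-concentration regression.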

[3] = target: wild type BTK [BTK(WT)] (Homo sapiens (Human), UniProt Q06187); assay: C481S Mutant BTK Inhibitory Activity Test, wild type BTK (mobility shift assay); assay type: biochemical; details: 120 μM ATP
Sequence of wild type BTK [BTK(WT)] (Q06187 whole entry): as above
Description: (§1) The kinase activity was measured using QuickScout Screening Assist (trademark) MSA (commercially available kit manufactured by Carna Biosciences, Inc.) by mobility shift assay (MSA) method. The substrate of the kinase reaction was an FITC-labeled SRCtide peptide included in the kit. […] The 10 mM solution of the test compound in DMSO was further diluted with DMSO to 10 levels of the concentration (0.00003 mM, 0.0001 mM, 0.0003 mM, 0.001 mM, 0.003 mM, 0.01 mM, 0.03 mM, 0.1 mM, 0.3 mM, 1 mM), each of which was subjected to a 25-fold dilution with the assay buffer to obtain the drug solutions (4% DMSO solutions).
(§2) 5 μL of the drug solution or a control solution (4% DMSO-assay buffer), 5 μL of the substrate mixture solution, and 10 μL of the enzyme solution were mixed in the wells of a polypropylene 384-well plate and allowed to react at room temperature for 1 hour, and then quenched by adding 60 μL of the termination buffer included in the kit. Subsequently, the quantities of the substrates (S) and the phosphorylated substrate (P) in the reaction solution were measured using LabChip EZ Reader II system (manufactured by Caliper Life Sciences) according to the protocol of the assay kit.
(§3) The heights of the peaks of the isolated substrate and the phosphorylated substrate were represented as S and P, respectively, and a blank which contained the assay buffer instead of the enzyme solution was also measured.
(§4) The inhibition rate (%) of the test compound was calculated according to the following equation; Inhibition rate (%)=(1−(C−A)/(B−A))×100 • wherein, A, B and C represent P/(P+S) of the blank well, P/(P+S) of the control well and P/(P+S) of the compound-containing well, respectively.
(§5) The IC50 value was calculated via a regression analysis of the inhibition rate (%) and the test compound concentration (logarithmic value).

[4] = tested on: OCI-Ly10 cells; assay: Proliferation-Inhibitory Test Against Diffuse Large-Cell B-Cell Lymphoma OCI-Ly10 Strain; assay type: cell-based; details: Homo sapiens, 96 hours, alamarBlue
How it was run: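 Proliferation was read by alamarBlue after a 96-hour incubation. Final compound concentrations spanned 0.9 nM to 30000 nM with 0.3% DMSO. Cells were seeded at 20000 per well in IMDM containing 20% fetal bovine serum under 5% CO2.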

[5] = target: C481S mutant BTK [BTK(C481S)] (Homo sapiens (Human), UniProt Q06187, C481S); assay: C481S Mutant BTK Inhibitory Activity Test (mobility shift assay); assay type: biochemical; details: for IC50: C481S mutant BTK, 100 μM ATP; for C481S mutation-resistance: IC50[BTK(C481S)]/IC50[BTK(WT)]
Sequence of C481S mutant BTK [BTK(C481S)] (Q06187 whole entry C481S): as the sequence (Q06187 whole entry) above, with C481S counted along it
Description: as §1, §2, §3, §4, §5

Sequence of BTK (Q06187 whole entry): as the sequence (Q06187 whole entry) above

Row | inhibition at 0.03 µM [1] [%] | IC50 [2] [µM] | IC50 [3] [µM] | IC50 [4] [µM] | IC50 [5] [µM] | C481S mutation-resistance [5] | SMILES
1 | ≥ 90 | < 0.01 |  |  |  |  | Nc1nc(-c2cccc(-n3ccc4cc(C5CC5)cc(F)c4c3=O)c2CO)c2cc(-c3ccccc3)[nH]c2n1 [Example 1, 2-[3-(2-amino-6-phenyl-7H-pyrrolo[2,3-d]pyrimidin-4-yl)-2-(hydroxymethyl)phenyl]-6-cyclopropyl-8-fluoroisoquinolin-1(2H)-one]
2 | ≥ 90 | < 0.01 | 0.00097 | 0.068 | 0.00099 | 1.0 | Nc1nc(-c2cccc(-n3ccc4cc(C5CC5)cc(F)c4c3=O)c2CO)c2nc(-c3ccccc3)[nH]c2n1 [Example 2, 2-[3-(2-amino-8-phenyl-9H-purin-6-yl)-2-(hydroxymethyl)phenyl]-6-cyclopropyl-8-fluoroisoquinolin-1(2H)-one]
3 | ≥ 90 | < 0.01 |  |  |  |  | Nc1nc(-c2cccc(-n3ccc4cc(C5CC5)cc(F)c4c3=O)c2CO)c2c(-c3ccccc3)n[nH]c2n1 [Example 3, 2-[3-(6-amino-3-phenyl-1H-pyrazolo[3,4-d]pyrimidin-4-yl)-2-(hydroxymethyl)phenyl]-6-cyclopropyl-8-fluoroisoquinolin-1(2H)-one]
4 | ≥ 90 | < 0.01 |  |  |  |  | Nc1nc(-c2cccc(-n3ccc4cc(C5CC5)cc(F)c4c3=O)c2CO)c2cn[nH]c2n1 [Example 5, 2-[3-(6-amino-1H-pyrazolo[3,4-d]pyrimidin-4-yl)-2-(hydroxymethyl)phenyl]-6-cyclopropyl-8-fluoroisoquinolin-1(2H)-one]
5 | ≥ 90 | < 0.01 | 0.00033 | 0.004 | 0.00043 | 1.3 | CN1CCN(Cc2ccc(-c3cc4c(-c5cccc(-n6ccc7cc(C8CC8)cc(F)c7c6=O)c5CO)nc(N)nc4[nH]3)cc2)CC1 [Example 8, 2-[3-(2-amino-6-{4-[(4-methylpiperazin-1-yl)methyl]phenyl}-7H-pyrrolo[2,3-d]pyrimidin-4-yl)-2-(hydroxymethyl)phenyl]-6-cyclopropyl-8-fluoroisoquinolin-1(2H)-one]
6 | 70 to 90 | < 0.01 |  |  |  |  | COc1ccccc1-c1cc2c(-c3cccc(-n4ccc5cc(C6CC6)cc(F)c5c4=O)c3CO)nc(N)nc2[nH]1 [Example 14, 2-{3-[2-amino-6-(2-methoxyphenyl)-7H-pyrrolo[2,3-d]pyrimidin-4-yl]-2-(hydroxymethyl)phenyl}-6-cyclopropyl-8-fluoroisoquinolin-1(2H)-one]
7 | ≥ 90 | < 0.01 |  |  |  |  | COc1cccc(-c2cc3c(-c4cccc(-n5ccc6cc(C7CC7)cc(F)c6c5=O)c4CO)nc(N)nc3[nH]2)c1 [Example 15, 2-{3-[2-amino-6-(3-methoxyphenyl)-7H-pyrrolo[2,3-d]pyrimidin-4-yl]-2-(hydroxymethyl)phenyl}-6-cyclopropyl-8-fluoroisoquinolin-1(2H)-one]
8 | ≥ 90 | < 0.01 |  |  |  |  | COc1ccc(-c2cc3c(-c4cccc(-n5ccc6cc(C7CC7)cc(F)c6c5=O)c4CO)nc(N)nc3[nH]2)cc1 [Example 16, 2-{3-[2-amino-6-(4-methoxyphenyl)-7H-pyrrolo[2,3-d]pyrimidin-4-yl]-2-(hydroxymethyl)phenyl}-6-cyclopropyl-8-fluoroisoquinolin-1(2H)-one]
9 | ≥ 90 | < 0.01 |  |  |  |  | Nc1nc(-c2cccc(-n3ccc4cc(C5CC5)cc(F)c4c3=O)c2CO)c2cc(-c3cccnc3)[nH]c2n1 [Example 17, 2-{3-[2-amino-6-(pyridin-3-yl)-7H-pyrrolo[2,3-d]pyrimidin-4-yl]-2-(hydroxymethyl)phenyl}-6-cyclopropyl-8-fluoroisoquinolin-1(2H)-one]
10 | ≥ 90 | < 0.01 |  |  |  |  | COc1cccc(-c2nc3c(-c4cccc(-n5ccc6cc(C7CC7)cc(F)c6c5=O)c4CO)nc(N)nc3[nH]2)c1 [Example 18, 2-{3-[2-amino-8-(3-methoxyphenyl)-9H-purin-6-yl]-2-(hydroxymethyl)phenyl}-6-cyclopropyl-8-fluoroisoquinolin-1(2H)-one]
11 | ≥ 90 | < 0.01 |  |  |  |  | Nc1nc(-c2cccc(-n3ccc4cc(C5CC5)cc(F)c4c3=O)c2CO)c2nc(-c3cccnc3)[nH]c2n1 [Example 25, 2-{3-[2-amino-8-(pyridin-3-yl)-9H-purin-6-yl]-2-(hydroxymethyl)phenyl]-6-cyclopropyl-8-fluoroisoquinolin-1(2H)-one]
12 | ≥ 90 | < 0.01 |  | 0.075 |  |  | Nc1nc(-c2cccc(-n3ccc4cc(C5CC5)cc(F)c4c3=O)c2CO)c2cc(-c3ccc(CN4CCOCC4)cc3)[nH]c2n1 [Example 26, 2-(3-{2-amino-6-[4-(morpholinomethyl)phenyl]-7H-pyrrolo[2,3-d]pyrimidin-4-yl}-2-(hydroxymethyl)phenyl)-6-cyclopropyl-8-fluoroisoquinolin-1(2H)-one]
13 | ≥ 90 | < 0.01 |  | 0.182 |  |  | N#Cc1ccc(-c2cc3c(-c4cccc(-n5ccc6cc(C7CC7)cc(F)c6c5=O)c4CO)nc(N)nc3[nH]2)cc1 [Example 27, 4-{2-amino-4-[3-(6-cyclopropyl-8-fluoro-1-oxoisoquinolin-2(1H)-yl)-2-(hydroxymethyl)phenyl]-7H-pyrrolo[2,3-d]pyrimidin-6-yl}benzonitrile]
14 | ≥ 90 | < 0.01 |  | 0.079 |  |  | Nc1nc(-c2cccc(-n3ccc4cc(C5CC5)cc(F)c4c3=O)c2CO)c2cc(-c3ccsc3)[nH]c2n1 [Example 32, 2-{3-[2-amino-6-(thiophen-3-yl)-7H-pyrrolo[2,3-d]pyrimidin-4-yl]-2-(hydroxymethyl)phenyl}-6-cyclopropyl-8-fluoroisoquinolin-1(2H)-one]

Source: patent US10793575B2, “Oxoisoquinoline derivatives” (CARNA BIOSCIENCES, INC., priority 2016, dated 2020)
